Tests used:
wild oat = assay: Test B postemergence herbicide test; format: in vivo, Avena fatua; conditions: postemergence
Outline: (§1)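 Read-out: visual comparison with controls, scored 0 to 100, where 100 means complete control and 0 no effect. Formulated chemicals were applied postemergence to plants 2–18 cm tall (1- to 4-leaf), or to flooded-paddy plants at the 2-leaf stage, then held 13 to 15 days under glass.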

velvetleaf [1] = assay: Test A pre-/postemergence herbicide test; format: in vivo, Abutilon theophrasti
Outline: (§2)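 Pre: seeded sandy loam, directed soil spray, compound in non-phytotoxic solvent + surfactant. Post: 1–2-leaf plants (2–10 cm), sprayed to runoff. Greenhouse ~10 d; visual injury vs untreated, 0–100 scale.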

morningglory [2] = assay: Test B pre-/postemergence herbicide test; format: in vivo, Ipomoea coccinea; conditions: for Morningglory plant response rating: postemergence
Outline: (§3)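 Test chemicals in a non-phytotoxic solvent mixture with surfactant were applied preemergence to seeded species and postemergence to plants 2-18 cm tall (1- to 4-leaf stage); rice and barnyardgrass were also tested in a flooded paddy at the 2-leaf stage. Visual rating versus controls after 13-15 days in greenhouse, scale 0 (no effect) to 100 (complete control).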

[3] = tested on: small flower umbrella sedge; assay: Test B flooded paddy test; format: in vivo, Cyperus difformis; conditions: 1000 g ai/ha, scale 0 to 100 (0 no effect, 100 complete control)
Outline: (§4)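 Paddy species grown to the 2-leaf stage under flooding; blackgrass sprayed postemergence at 2–18 cm (1- to 4-leaf stage). Plants kept in a greenhouse for 13 to 15 days, then visually rated against controls on 0 (no effect) to 100 (complete control).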

barnyardgrass [4] = assay: Test A pre-/postemergence herbicide test; format: in vivo, Echinochloa crus-galli
Outline: as §2

pigweed = assay: Test B pre-/postemergence herbicide test; format: in vivo, Amaranthus retroflexus; conditions: for Pigweed plant response rating: postemergence
Outline: (§5)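 Formulation: non-phytotoxic solvent mix with surfactant. Timing: preemergence on seed and postemergence on 2–18 cm plants, applied concurrently. Readout after 13–15 d greenhouse: visual 0–100 control rating against controls.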

giant foxtail [5] = assay: Test B pre-/postemergence herbicide test; format: in vivo, Setaria faberi; conditions: for Foxtail, Giant plant response rating: postemergence
Outline: as §5

barnyardgrass [6] = assay: Test B flooded paddy test; format: in vivo, Echinochloa crus-galli; conditions: 1000 g ai/ha, scale 0 to 100 (0 no effect, 100 complete control)
Outline: as §4

lambsquarters = assay: Test B pre-/postemergence herbicide test; format: in vivo, Chenopodium album; conditions: for Lambsquarters plant response rating: postemergence
Outline: as §5

barnyardgrass [7] = assay: Test B pre-/postemergence herbicide test; format: in vivo, Echinochloa crus-galli; conditions: for Barnyardgrass plant response rating: postemergence
Outline: as §3

giant foxtail [8] = assay: Test A pre-/postemergence herbicide test; format: in vivo, Setaria faberi
Outline: as §2

rice = assay: Test B flooded paddy test; format: in vivo, Oryza sativa; conditions: 1000 g ai/ha, scale 0 to 100 (0 no effect, 100 complete control)
Outline: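 Scale 0–100: zero equals no visible effect, 100 complete control, judged by eye relative to controls. Timing: 13 to 15 days in greenhouse post-treatment. Growth stage at spraying: two leaves (paddy) or one to four leaves, 2–18 cm (postemergence).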

Surinam grass = assay: Test B pre-/postemergence herbicide test; format: in vivo, Urochloa decumbens; conditions: for Surinam Grass plant response rating: postemergence
Outline: as §5

wheat = assay: Test B postemergence herbicide test; format: in vivo, Triticum aestivum; parameters: key to Wheat plant response rating: 0 = no effect, 100 = complete control; conditions: postemergence
Outline: as §1

corn = assay: Test B pre-/postemergence herbicide test; format: in vivo, Zea mays; conditions: for Corn plant response rating: postemergence
Outline: as §5

morningglory [9] = assay: Test A pre-/postemergence herbicide test; format: in vivo, Ipomoea spp.
Outline: as §2

large crabgrass [10] = assay: Test A pre-/postemergence herbicide test; format: in vivo, Digitaria sanguinalis
Outline: as §2

ducksalad = assay: Test B flooded paddy test; format: in vivo, Heteranthera limosa; conditions: 1000 g ai/ha, scale 0 to 100 (0 no effect, 100 complete control)
Outline: as §4

blackgrass = assay: Test B postemergence herbicide test; format: in vivo, Alopecurus myosuroides; conditions: postemergence
Outline: as §4

redroot pigweed = assay: Test A pre-/postemergence herbicide test; format: in vivo, Amaranthus retroflexus
Outline: as §2

velvetleaf [11] = assay: Test B pre-/postemergence herbicide test; format: in vivo, Abutilon theophrasti; conditions: for Velvetleaf plant response rating: postemergence
Outline: as §5

large crabgrass [12] = assay: Test B pre-/postemergence herbicide test; format: in vivo, Digitaria sanguinalis; conditions: for Crabgrass, Large plant response rating: postemergence
Outline: as §5

cocklebur = assay: Test B pre-/postemergence herbicide test; format: in vivo, Xanthium strumarium; conditions: for Cocklebur plant response rating: postemergence
Outline: as §3

[13] = 125 g ai/ha, visual rating, scale 0 (no effect) to 100 (complete control)
[14] = 500 g ai/ha, scale 0 to 100, 0 is no effect, 100 is complete control
[15] = Postemergence, 500 g ai/ha, 0 to 100 scale, 0 no effect, 100 complete control
[16] = Postemergence, 2000 g ai/ha, 0 to 100 scale, 0 no effect, 100 complete control
[17] = Preemergence, 2000 g ai/ha, visual rating, 0 to 100 scale (0 no effect, 100 complete control)
[18] = preemergence, 500 g ai/ha, visual injury, 0 to 100 scale (0 no effect, 100 complete control)
[19] = 125 g ai/ha, 0 = no effect, 100 = complete control, preemergence
[20] = 500 g ai/ha, visual rating, 0 = no effect, 100 = complete control, preemergence
[21] = 125 g ai/ha, 0 is no effect, 100 is complete control, preemergence

## COC(=O)c1cccc(NC(=O)c2cc(C(C)(C)C)nn2C)n1 [Compound 312]
Wild oat; [13]
  Oat, Wild plant response rating: 0
Wild oat; [14]
  Oat, Wild plant response rating: 0
Velvetleaf [1]; [15]
  Velvetleaf plant response rating: 0
Velvetleaf [1]; [16]
  Plant response rating, Velvetleaf: 0
Velvetleaf [1]; [17]
  Velvetleaf plant response rating: 0
Velvetleaf [1]; [18]
  Velvetleaf plant response rating: 0
Morningglory [2]; [19]
  Morningglory plant response rating (0 to 100 scale): 0
Morningglory [2]; [13]
  Morningglory plant response rating: 0
Morningglory [2]; [20]
  Plant response rating, Morningglory: 0
Morningglory [2]; [14]
  Morningglory plant response rating: 20
[3]
  Sedge, Umbrella plant response rating: 0
Barnyardgrass [4]; [15]
  Barnyardgrass plant response rating: 0
Barnyardgrass [4]; [16]
  Plant response rating, Barnyardgrass: 0
Barnyardgrass [4]; [17]
  Barnyardgrass plant response rating: 0
Barnyardgrass [4]; [18]
  Barnyardgrass plant response rating: 0
pigweed; [19]
  Pigweed plant response rating (0 to 100 scale): 0
pigweed; [13]
  Pigweed plant response rating: 0
pigweed; [20]
  Plant response rating, Pigweed: 0
pigweed; [14]
  Pigweed plant response rating: 20
Giant foxtail [5]; [19]
  Foxtail, Giant plant response rating (0 to 100 scale): 0
Giant foxtail [5]; [13]
  Foxtail, Giant plant response rating: 0
Giant foxtail [5]; [20]
  Plant response rating, Foxtail, Giant: 0
Giant foxtail [5]; [14]
  Foxtail, Giant plant response rating: 0
Barnyardgrass [6]
  Barnyardgrass plant response rating: 0
lambsquarters; [19]
  Lambsquarters plant response rating (0 to 100 scale): 0
lambsquarters; [13]
  Lambsquarters plant response rating: 10
lambsquarters; [20]
  Plant response rating, Lambsquarters: 0
lambsquarters; [14]
  Lambsquarters plant response rating: 20
Barnyardgrass [7]; [19]
  Barnyardgrass plant response rating (0 to 100 scale): 0
Barnyardgrass [7]; [13]
  Barnyardgrass plant response rating: 0
Barnyardgrass [7]; [20]
  Plant response rating, Barnyardgrass: 0
Barnyardgrass [7]; [14]
  Barnyardgrass plant response rating: 0
Giant foxtail [8]; [15]
  Foxtail, Giant plant response rating: 0
Giant foxtail [8]; [16]
  Plant response rating, Foxtail, Giant: 0
Giant foxtail [8]; [17]
  Foxtail, Giant plant response rating: 0
Giant foxtail [8]; [18]
  Foxtail, Giant plant response rating: 0
rice
  Rice plant response rating: 0
Surinam grass; [19]
  Surinam Grass plant response rating (0 to 100 scale): 0
Surinam grass; [13]
  Surinam Grass plant response rating: 0
Surinam grass; [20]
  Plant response rating, Surinam Grass: 0
Surinam grass; [14]
  Surinam Grass plant response rating: 0
wheat; [13]
  Wheat plant response rating: 0
wheat; [14]
  Wheat plant response rating: 0
corn; [19]
  Corn plant response rating (0 to 100 scale): 0
corn; [13]
  Corn plant response rating: 0
corn; [20]
  Plant response rating, Corn: 0
corn; [14]
  Corn plant response rating: 0
Morningglory [9]; [15]
  Morningglory plant response rating: 0
Morningglory [9]; [16]
  Plant response rating, Morningglory: 0
Morningglory [9]; [17]
  Morningglory plant response rating: 0
Morningglory [9]; [18]
  Morningglory plant response rating: 0
Large crabgrass [10]; [15]
  Crabgrass, Large plant response rating: 0
Large crabgrass [10]; [16]
  Plant response rating, Crabgrass, Large: 0
Large crabgrass [10]; [17]
  Crabgrass, Large plant response rating: 0
Large crabgrass [10]; [18]
  Crabgrass, Large plant response rating: 0
ducksalad
  Ducksalad plant response rating: 0
blackgrass; [13]
  Blackgrass plant response rating: 0
blackgrass; [14]
  Blackgrass plant response rating: 0
Redroot pigweed; [15]
  Pigweed plant response rating: 0
Redroot pigweed; [16]
  Plant response rating, Pigweed: 0
Redroot pigweed; [17]
  Pigweed plant response rating: 0
Redroot pigweed; [18]
  Pigweed plant response rating: 0
Velvetleaf [11]; [13]
  Velvetleaf plant response rating: 0
Velvetleaf [11]; [20]
  Plant response rating, Velvetleaf: 0
Velvetleaf [11]; [14]
  Velvetleaf plant response rating: 0
Large crabgrass [12]; [19]
  Crabgrass, Large plant response rating (0 to 100 scale): 0
Large crabgrass [12]; [13]
  Crabgrass, Large plant response rating: 0
Large crabgrass [12]; [20]
  Plant response rating, Crabgrass, Large: 0
Large crabgrass [12]; [14]
  Crabgrass, Large plant response rating: 0
cocklebur; [19]
  Cocklebur plant response rating (0 to 100 scale): 0
cocklebur; [13]
  Cocklebur plant response rating: 0
cocklebur; [20]
  Plant response rating, Cocklebur: 0
cocklebur; [14]
  Cocklebur plant response rating: 0

## CCOc1ccc(F)c(NC(=O)c2cc(C(C)(C)C)nn2CC)c1 [Compound 348]
Wild oat; [13]
  Oat, Wild plant response rating: 20
Wild oat; [14]
  Oat, Wild plant response rating: 30
Velvetleaf [1]; [15]
  Velvetleaf plant response rating: 0
Velvetleaf [1]; [16]
  Plant response rating, Velvetleaf: 0
Velvetleaf [1]; [17]
  Velvetleaf plant response rating: 0
Velvetleaf [1]; [18]
  Velvetleaf plant response rating: 0
Morningglory [2]; [21]
  Plant response rating (0 to 100 scale), Morningglory: 0
Morningglory [2]; [13]
  Morningglory plant response rating: 0
Morningglory [2]; [20]
  Plant response rating, Morningglory: 0
Morningglory [2]; [14]
  Morningglory plant response rating: 0
[3]
  Sedge, Umbrella plant response rating: 0
Barnyardgrass [4]; [15]
  Barnyardgrass plant response rating: 0
Barnyardgrass [4]; [16]
  Plant response rating, Barnyardgrass: 0
Barnyardgrass [4]; [17]
  Barnyardgrass plant response rating: 0
Barnyardgrass [4]; [18]
  Barnyardgrass plant response rating: 0
pigweed; [21]
  Plant response rating (0 to 100 scale), Pigweed: 0
pigweed; [13]
  Pigweed plant response rating: 0
pigweed; [20]
  Plant response rating, Pigweed: 0
pigweed; [14]
  Pigweed plant response rating: 0
Giant foxtail [5]; [21]
  Plant response rating (0 to 100 scale), Foxtail, Giant: 0
Giant foxtail [5]; [13]
  Foxtail, Giant plant response rating: 0
Giant foxtail [5]; [20]
  Plant response rating, Foxtail, Giant: 0
Giant foxtail [5]; [14]
  Foxtail, Giant plant response rating: 0
Barnyardgrass [6]
  Barnyardgrass plant response rating: 0
lambsquarters; [21]
  Plant response rating (0 to 100 scale), Lambsquarters: 0
lambsquarters; [13]
  Lambsquarters plant response rating: 0
lambsquarters; [20]
  Plant response rating, Lambsquarters: 0
lambsquarters; [14]
  Lambsquarters plant response rating: 0
Barnyardgrass [7]; [21]
  Plant response rating (0 to 100 scale), Barnyardgrass: 0
Barnyardgrass [7]; [13]
  Barnyardgrass plant response rating: 0
Barnyardgrass [7]; [20]
  Plant response rating, Barnyardgrass: 0
Barnyardgrass [7]; [14]
  Barnyardgrass plant response rating: 0
Giant foxtail [8]; [15]
  Foxtail, Giant plant response rating: 0
Giant foxtail [8]; [16]
  Plant response rating, Foxtail, Giant: 0
Giant foxtail [8]; [17]
  Foxtail, Giant plant response rating: 0
Giant foxtail [8]; [18]
  Foxtail, Giant plant response rating: 0
rice
  Rice plant response rating: 0
Surinam grass; [21]
  Plant response rating (0 to 100 scale), Surinam Grass: 0
Surinam grass; [13]
  Surinam Grass plant response rating: 0
Surinam grass; [20]
  Plant response rating, Surinam Grass: 0
Surinam grass; [14]
  Surinam Grass plant response rating: 0
wheat; [13]
  Wheat plant response rating: 20
wheat; [14]
  Wheat plant response rating: 20
corn; [21]
  Plant response rating (0 to 100 scale), Corn: 0
corn; [13]
  Corn plant response rating: 0
corn; [20]
  Plant response rating, Corn: 0
corn; [14]
  Corn plant response rating: 0
Morningglory [9]; [15]
  Morningglory plant response rating: 0
Morningglory [9]; [16]
  Plant response rating, Morningglory: 0
Morningglory [9]; [17]
  Morningglory plant response rating: 0
Morningglory [9]; [18]
  Morningglory plant response rating: 0
Large crabgrass [10]; [15]
  Crabgrass, Large plant response rating: 0
Large crabgrass [10]; [16]
  Plant response rating, Crabgrass, Large: 0
Large crabgrass [10]; [17]
  Crabgrass, Large plant response rating: 0
Large crabgrass [10]; [18]
  Crabgrass, Large plant response rating: 0
ducksalad
  Ducksalad plant response rating: 0
blackgrass; [13]
  Blackgrass plant response rating: 20
blackgrass; [14]
  Blackgrass plant response rating: 40
Redroot pigweed; [15]
  Pigweed plant response rating: 0
Redroot pigweed; [16]
  Plant response rating, Pigweed: 0
Redroot pigweed; [17]
  Pigweed plant response rating: 0
Redroot pigweed; [18]
  Pigweed plant response rating: 0
Velvetleaf [11]; [21]
  Plant response rating (0 to 100 scale), Velvetleaf: 0
Velvetleaf [11]; [13]
  Velvetleaf plant response rating: 0
Velvetleaf [11]; [14]
  Velvetleaf plant response rating: 0
Large crabgrass [12]; [21]
  Plant response rating (0 to 100 scale), Crabgrass, Large: 0
Large crabgrass [12]; [13]
  Crabgrass, Large plant response rating: 0
Large crabgrass [12]; [20]
  Plant response rating, Crabgrass, Large: 0
Large crabgrass [12]; [14]
  Crabgrass, Large plant response rating: 0
cocklebur; [21]
  Plant response rating (0 to 100 scale), Cocklebur: 0
cocklebur; [13]
  Cocklebur plant response rating: 0
cocklebur; [20]
  Plant response rating, Cocklebur: 0
cocklebur; [14]
  Cocklebur plant response rating: 0

From patent US20060069132A1, “Azolecarboxamide herbicides” (priority 2004, published 2006)
